Measurements reported in patent publication US9527851B2, “Pyrrole six-membered heteroaryl ring derivative, preparation method thereof, and medicinal uses thereof” (Jiangsu Hengrui Medicine Co., Ltd., priority 2011, dated 2016).

Columns and labels:
[1] = molecular target: JAK1 kinase (Homo sapiens (Human), UniProt P23458); experiment: Assay for inhibiting JAK1 kinase (in vitro kinase assay, HRP anti-phosphotyrosine antibody/TMB absorbance); assay type: biochemical; details: 20 μM ATP, 50 minutes at room temperature; read-out: IC50 (JAK1/Bio)
Chain of JAK1 kinase (P23458 whole entry): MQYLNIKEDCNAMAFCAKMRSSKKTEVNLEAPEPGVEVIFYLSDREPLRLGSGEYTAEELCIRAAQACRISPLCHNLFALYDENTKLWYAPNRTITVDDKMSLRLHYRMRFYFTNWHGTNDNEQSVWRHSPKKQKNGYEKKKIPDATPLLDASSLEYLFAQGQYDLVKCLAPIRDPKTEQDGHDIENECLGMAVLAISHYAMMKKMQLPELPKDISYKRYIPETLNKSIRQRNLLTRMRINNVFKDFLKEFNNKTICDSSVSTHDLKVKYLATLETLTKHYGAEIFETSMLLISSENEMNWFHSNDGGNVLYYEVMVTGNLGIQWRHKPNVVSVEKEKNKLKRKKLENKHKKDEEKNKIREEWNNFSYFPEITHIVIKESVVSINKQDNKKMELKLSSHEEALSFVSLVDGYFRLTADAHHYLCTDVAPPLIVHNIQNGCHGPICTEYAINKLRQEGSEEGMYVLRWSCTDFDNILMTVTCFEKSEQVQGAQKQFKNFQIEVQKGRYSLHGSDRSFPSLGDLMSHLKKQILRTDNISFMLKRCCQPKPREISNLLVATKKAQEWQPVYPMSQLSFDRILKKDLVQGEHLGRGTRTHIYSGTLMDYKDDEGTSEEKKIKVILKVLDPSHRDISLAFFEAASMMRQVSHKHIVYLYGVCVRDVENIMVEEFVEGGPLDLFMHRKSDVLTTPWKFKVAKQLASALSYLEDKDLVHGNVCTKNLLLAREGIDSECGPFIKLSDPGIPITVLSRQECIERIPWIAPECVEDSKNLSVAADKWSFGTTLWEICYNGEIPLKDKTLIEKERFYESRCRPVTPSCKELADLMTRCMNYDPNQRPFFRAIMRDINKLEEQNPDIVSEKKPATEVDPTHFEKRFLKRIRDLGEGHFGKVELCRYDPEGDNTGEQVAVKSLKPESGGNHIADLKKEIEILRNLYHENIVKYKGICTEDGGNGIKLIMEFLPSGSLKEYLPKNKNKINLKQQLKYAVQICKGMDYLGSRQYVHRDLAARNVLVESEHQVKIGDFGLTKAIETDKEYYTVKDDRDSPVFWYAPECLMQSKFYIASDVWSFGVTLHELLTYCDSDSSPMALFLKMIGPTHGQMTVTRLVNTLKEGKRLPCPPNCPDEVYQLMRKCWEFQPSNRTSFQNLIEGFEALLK
Description: In vitro activity of compounds of the present invention for inhibiting JAK1 kinase was determined by the following method.
IC50 values of test compounds was calculated from the data of the test compounds in inhibiting the activity of JAK1 kinase at different concentrations.

[2] = molecular target: JAK2 kinase (Homo sapiens (Human), UniProt O60674); experiment: Assay for inhibiting JAK2 kinase (in vitro kinase assay, HRP anti-phosphotyrosine antibody/TMB absorbance); assay type: biochemical; details: 20 μM ATP, 50 minutes at room temperature; read-out: IC50 (JAK2/Bio)
Chain of JAK2 kinase (O60674 whole entry): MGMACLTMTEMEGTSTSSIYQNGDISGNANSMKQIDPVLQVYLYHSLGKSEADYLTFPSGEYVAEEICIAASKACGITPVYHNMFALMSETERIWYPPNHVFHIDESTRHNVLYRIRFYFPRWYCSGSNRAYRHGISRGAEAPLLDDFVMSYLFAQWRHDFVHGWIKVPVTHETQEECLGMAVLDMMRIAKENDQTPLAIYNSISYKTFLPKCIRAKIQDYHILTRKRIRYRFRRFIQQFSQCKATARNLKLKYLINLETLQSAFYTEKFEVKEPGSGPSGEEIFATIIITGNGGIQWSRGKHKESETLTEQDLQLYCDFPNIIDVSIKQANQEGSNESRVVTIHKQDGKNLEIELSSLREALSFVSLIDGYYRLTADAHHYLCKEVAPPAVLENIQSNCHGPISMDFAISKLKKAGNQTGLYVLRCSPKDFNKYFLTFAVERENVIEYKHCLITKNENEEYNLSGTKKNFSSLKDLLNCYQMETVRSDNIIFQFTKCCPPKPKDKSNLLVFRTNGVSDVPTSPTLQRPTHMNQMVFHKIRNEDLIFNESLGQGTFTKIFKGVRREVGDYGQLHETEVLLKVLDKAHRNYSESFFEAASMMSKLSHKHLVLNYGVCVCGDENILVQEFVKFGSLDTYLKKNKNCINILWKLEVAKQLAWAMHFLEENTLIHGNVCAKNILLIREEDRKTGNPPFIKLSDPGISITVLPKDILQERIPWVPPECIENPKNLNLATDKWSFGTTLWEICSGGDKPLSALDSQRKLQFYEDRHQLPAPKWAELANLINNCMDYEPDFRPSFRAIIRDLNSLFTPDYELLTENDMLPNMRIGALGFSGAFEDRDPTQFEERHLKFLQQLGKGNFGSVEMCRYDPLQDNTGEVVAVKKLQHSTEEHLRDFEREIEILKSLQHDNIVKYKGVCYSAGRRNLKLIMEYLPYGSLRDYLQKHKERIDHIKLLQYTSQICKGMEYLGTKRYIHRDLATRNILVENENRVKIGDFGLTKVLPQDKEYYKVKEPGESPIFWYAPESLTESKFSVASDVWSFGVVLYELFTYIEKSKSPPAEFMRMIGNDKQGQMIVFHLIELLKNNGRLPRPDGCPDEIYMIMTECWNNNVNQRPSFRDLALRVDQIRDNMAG
Description: In vitro activity of compounds of the present invention for inhibiting JAK2 kinase was determined by the following method.

[3] = Pharmacokinetics assay in rats, intragastric administration, plasma by LC/MS/MS; assay type: in vivo, Sprague-Dawley (SD) rats; details: both sexes, Sprague-Dawley, rat, plasma, po, SD rats, 10 mg/kg
Description: Rats were used as test animals. […] The pharmacokinetic behavior of the compounds of the present invention was studied and evaluated in rats.
56 Healthy adult Sprague-Dawley (SD) rats, half male and half female, purchased from SINO-BRITSH SIPPR/BK LAB.
The appropriate amount of test compounds were weighed and mixed with 1.0 mL of dimethyl sulfoxide to prepare a 1.0 mg/mL suspension.
After an overnight fast, SD rats were administered intragastrically at a dose of 10.0 mg/kg and an administration volume of 10 mL/kg.
The plasma samples were stored at −20° C. The rats were fed 2 hours after administration.
Content determination of the test compounds in rat plasma after intragastrically administering at different concentrations: 50 μL of rat plasmas taken at various time points after administration were mixed with 50 μL of internal standard solution and 100 μL of methanol and mixed for 3 minutes by a vortexer. The mixture was centrifuged for 10 minutes at 13,500 rpm. 10 μL of the supernatant was taken from the plasma sample and analyzed by LC-MS/MS.
Pharmacokinetic Parameters of the compounds of the present invention were shown as follows: […]

| Structure (SMILES) | IC50 [1] | IC50 [2] | other results |
| --- | --- | --- | --- |
| COc1nnc(NC(=O)N2C[C@H]3C[C@H](N(C)c4ncnc5[nH]ccc45)C[C@H]3C2)s1 [Example 155, (3aR,5S,6aS)-N-(5-methoxy-1,3,4-thiadiazol-2-yl)-5-(methyl(7H-pyrrolo[2,3-d]pyrimidin-4-yl)amino)hexahydrocyclopenta[c]pyrrole-2(1H)-carboxamide] | 4 nM | 41 nM |  |
| CN(c1ncnc2[nH]ccc12)[C@H]1C[C@@H]2CN(C(=O)[C@H](O)CO)C[C@@H]2C1 [Example 92, (R)-2,3-dihydroxy-1-((3aR,5S,6aS)-5-(methyl(7H-pyrrolo[2,3-d]pyrimidin-4-yl)amino)hexahydrocyclopenta[c]pyrrol-2(1H)-yl)propan-1-one] | 131 nM | 203 nM |  |
| COc1nsc(NC(=O)N2C[C@H]3C[C@H](N(C)c4ccnc5[nH]ccc45)C[C@H]3C2)n1 [Example 113, (3aR,5S,6aS)-N-(3-methoxy-1,2,4-thiadiazol-5-yl)-5-(methyl(1H-pyrrolo[2,3-b]pyridin-4-yl)amino)hexahydrocyclopenta[c]pyrrole-2(1H)-carboxamide] | 23 nM | 178 nM |  |
| COc1nsc(NC(=O)N2CC[C@H]3CC(N(C)c4ncnc5[nH]ccc45)C[C@H]3C2)n1 (stereo partly drawn) [Example 38, (4aS,7aR)—N-(3-Methoxy-1,2,4-thiadiazol-5-yl)-6-(methyl(7H-pyrrolo[2,3-d]pyrimidin-4-yl)amino)hexahydro-1H-cyclopenta[c]pyridine-2(3H)-carboxamide] |  | 7 nM |  |
| COC(=O)N1CC[C@H]2CC(N(C)c3ncnc4[nH]ccc34)C[C@H]2C1 (stereo partly drawn) [Example 36, (4aS,7aR)-Methyl 6-(methyl(7H-pyrrolo[2,3-d]pyrimidin-4-yl)amino) hexahydro-1H-cyclopenta[c]pyridine-2(3H)-carboxylate] | 25 nM | 75 nM |  |
| COC(=O)CN1C[C@H]2C[C@H](N(C)c3ncnc4[nH]ccc34)C[C@H]2C1 [Example 24, methyl 2-((3aR,5S,6aS)-5-(methyl(7H-pyrrolo[2,3-d]pyrimidin-4-yl)amino)hexahydrocyclopenta[c]pyrrol-2(1H)-yl)acetate] | 13 nM | 77 nM |  |
| CN(c1ncnc2[nH]ccc12)[C@@H]1C[C@@H]2CN(CCC#N)C[C@@H]2C1 [Example 68, 3-((3aR,5R,6aS)-5-(methyl(7H-pyrrolo[2,3-d]pyrimidin-4-yl)amino)hexahydrocyclopenta[c]pyrrol-2(1H)-yl)propanenitrile] | 17 nM | 18 nM |  |
| CN(c1ncnc2[nH]ccc12)[C@@H]1C[C@@H]2CN(C(=O)CCC#N)C[C@@H]2C1 [Example 75, 4-((3aR,5R,6aS)-5-(methyl(7H-pyrrolo[2,3-d]pyrimidin-4-yl)amino)hexahydrocyclopenta[c]pyrrol-2(1H)-yl)-4-oxobutanenitrile] | 46 nM | 156 nM |  |
| COC(=O)CN1C[C@@H]2[C@H](C1)[C@H]2CN(C)c1ncnc2[nH]ccc12 [Example 134, methyl 2-((1R,5S,6R)-6-((methyl(7H-pyrrolo[2,3-d]pyrimidin-4-yl)amino)methyl)-3-azabicyclo[3.1.0]hexan-3-yl)acetate] |  | 60 nM |  |
| CN(c1ncnc2[nH]ccc12)[C@@H]1C[C@@H]2CN(C(=O)Nc3nncs3)C[C@@H]2C1 [Example 73, (3aR,5R,6aS)-5-(methyl(7H-pyrrolo[2,3-d]pyrimidin-4-yl)amino)-N-(1,3,4-thiadiazol-2-yl)hexahydrocyclopenta[c]pyrrole-2(1H)-carboxamide] | 75 nM | 47 nM |  |
| Cc1nsc(N2C[C@H]3C[C@H](N(C)c4ncnc5[nH]ccc45)C[C@H]3C2)n1 [Example 65, N-methyl-N-((3aR,5S,6aS)-2-(3-methyl-1,2,4-thiadiazol-5-yl)octahydrocyclopenta[c]pyrrol-5-yl)-7H-pyrrolo[2,3-d]pyrimidin-4-amine] |  | 179 nM |  |
| CN(c1ncnc2[nH]ccc12)[C@H]1C[C@@H]2CN(C(=O)Nc3nncs3)C[C@@H]2C1 [Example 86, (3aR,5S,6aS)-5-(methyl(7H-pyrrolo[2,3-d]pyrimidin-4-yl)amino)-N-(1,3,4-thiadiazol-2-yl)hexahydrocyclopenta[c]pyrrole-2(1H)-carboxamide] | 10 nM | 52 nM |  |
| Cc1ncc(NC(=O)N2C[C@H]3C[C@H](N(C)c4ncnc5[nH]ccc45)C[C@H]3C2)s1 [Example 124, (3aR,5S,6aS)-5-(methyl(7H-pyrrolo[2,3-d]pyrimidin-4-yl)amino)-N-(2-methylthiazol-5-yl)hexahydrocyclopenta[c]pyrrole-2(1H)-carboxamide] | 119 nM |  |  |
| CN(c1ncnc2[nH]ccc12)[C@H]1C[C@@H]2CN(S(C)(=O)=O)C[C@@H]2C1 [Example 51, N-methyl-N-((3aR,5S,6aS)-2-(methylsulfonyl)octahydrocyclopenta[c]pyrrol-5-yl)-7H-pyrrolo[2,3-d]pyrimidin-4-amine] | 100 nM |  |  |
| CN(c1ncnc2[nH]ccc12)[C@@H]1C[C@@H]2CN(C(=O)CO)C[C@@H]2C1 [Example 23, 2-Hydroxy-1-((3aR,5R,6aS)-5-(methyl(7H-pyrrolo[2,3-d]pyrimidin-4-yl)amino)hexahydrocyclopenta[c]pyrrol-2(1H)-yl)ethanone] | 21 nM |  |  |
| CN(c1ncnc2[nH]ccc12)[C@H]1C[C@@H]2CN(CC#N)C[C@@H]2C1 [Example 26, 2-((3aR,5S,6aS)-5-(Methyl(7H-pyrrolo[2,3-d]pyrimidin-4-yl)amino)hexahydrocyclopenta[c]pyrrol-2(1H)-yl)acetonitrile] | 46 nM |  |  |
| C[C@H](O)C(=O)N1C[C@H]2C[C@@H](N(C)c3ncnc4[nH]ccc34)C[C@H]2C1 [Example 71, (S)-2-hydroxy-1-((3aR,5S,6aS)-5-(methyl(7H-pyrrolo[2,3-d]pyrimidin-4-yl)amino)hexahydrocyclopenta[c]pyrrol-2(1H)-yl)propan-1-one] | 36 nM |  |  |
| C[C@@H](O)C(=O)N1C[C@H]2C[C@H](N(C)c3ncnc4[nH]ccc34)C[C@H]2C1 [Example 19, (R)-2-Hydroxy-1-((3aR,5S,6aS)-5-(methyl(7H-pyrrolo[2,3-d]pyrimidin-4-yl)amino)hexahydrocyclopenta[c]pyrrol-2(1H)-yl)propan-1-one] | 48 nM |  |  |
| CC(C#N)C(=O)N1C[C@H]2C[C@H](N(C)c3ncnc4[nH]ccc34)C[C@H]2C1 (stereo partly drawn) [Example 82, 2-methyl-3-((3aR,5S,6aS)-5-(methyl(7H-pyrrolo[2,3-d]pyrimidin-4-yl)amino)hexahydrocyclopenta[c]pyrrol-2(1H)-yl)-3-oxopropanenitrile] | 49 nM |  |  |
| CN(C[C@H]1[C@@H]2CN(C(=O)C3CC3)C[C@@H]21)c1ncnc2[nH]ccc12 [Example 135, cyclopropyl((1R,5S,6S)-6-((methyl(7H-pyrrolo[2,3-d]pyrimidin-4-yl)amino)methyl)-3-azabicyclo[3.1.0]hexan-3-yl)methanone] |  | 2 nM |  |
| COCC(=O)N1C[C@H]2C[C@H](N(C)c3ncnc4[nH]ccc34)C[C@H]2C1 [Example 18, 2-Methoxy-1-((3aR,5S,6aS)-5-(methyl(7H-pyrrolo[2,3-d]pyrimidin-4-yl)amino)hexahydrocyclopenta[c]pyrrol-2(1H)-yl)ethanone] | 49 nM |  |  |
| C[C@@H](O)C(=O)N1C[C@H]2C[C@@H](N(C)c3ncnc4[nH]ccc34)C[C@H]2C1 [Example 72, (R)-2-hydroxy-1-((3aR,5R,6aS)-5-(methyl(7H-pyrrolo[2,3-d]pyrimidin-4-yl)amino)hexahydrocyclopenta[c]pyrrol-2(1H)-yl)propan-1-one] | 42 nM |  |  |
| CN(c1ncnc2[nH]ccc12)[C@H]1C[C@@H]2CN(C(=O)CC#N)C[C@@H]2C1 [Example 8, 3-((3aR,5S,6aS)-5-(Methyl(7H-pyrrolo[2,3-d]pyrimidin-4-yl)amino)hexahydrocyclopenta[c]pyrrol-2(1H)-yl)-3-oxopropanenitrile] | 32 nM |  |  |
| C[C@H](O)C(=O)N1C[C@H]2C[C@H](N(C)c3ncnc4[nH]ccc34)C[C@H]2C1 [Example 17, (S)-2-Hydroxy-1-((3aR,5R,6aS)-5-(methyl(7H-pyrrolo[2,3-d]pyrimidin-4-yl)amino)hexahydrocyclopenta[c]pyrrol-2(1H)-yl)propan-1-one] | 0.2 nM |  | Vd/F ([3]; read-out: Apparent Distribution Volume Vz/F): 6.2 ± 1.69 L/kg; AUC ([3]; read-out: Area Under Curve AUC): 4760 ± 1680 ng·h/mL; CL/F ([3]; read-out: Clearance CL/F): 38.7 ± 13.7 mL/min/kg; half-life ([3]; read-out: Half-Life t½ (converted)): 2.03 ± 0.82 h; Cmax ([3]; read-out: Plasma Conc. Cmax): 1480 ± 177 ng/mL |
